Data: patent publication US20080109040A1, “METHOD OF TREATING ARRHYTHMIAS” (priority 2002, published 2008)
Read-outs that look alike come from different tables or passages of the source.

Legend:
[1] = biological target: late INa (Canis lupus familiaris, UniProt Q865W3); assay: Late INa, perforated patch voltage clamp in isolated canine left ventricular myocytes; assay type: cell-based; conditions: 500 ms pulses to −30 mV at 1 Hz, read-out: Half-inhibition of late INa
[2] = biological target: T1, sodium-calcium exchange current (INa-Ca) (Canis lupus familiaris, UniProt P23685); assay: Sodium-calcium exchange current voltage clamp in isolated canine left ventricular myocytes; assay type: cell-based; conditions: read-out: IC50 for inhibition of INa-Ca
T1 construct: Single myocytes were obtained by enzymatic dissociation from a wedge-shaped section of the ventricular free wall; endogenous in cells; host or cells: isolated canine left ventricular myocytes

[3] = test system: Purkinje fibers; set-up: species or system canine; conditions: for Amplitude (phase 0) / Overshoot / RMP: BCL = 500 msec
Experimental: Dogs weighing 20-25 kg were anticoagulated with heparin and anesthetized with pentobarbital (30-35 mg/kg, i.v.). The chest was opened via a left thoracotomy, the heart excised and placed in a cold cardioplegic solution ([K^+]o=8 mmol/L, 4° C.). Free running Purkinje fibers were isolated from the left and right ventricles. The preparations were placed in a tissue bath (5 ml volume with flow rate of 12 ml/min) and allowed to equilibrate for at least 30 min while superfused with an oxygenated Tyrode's solution (pH=7.35, t^0=37±0.5° C.) and paced at a basic cycle length (BCL) of 1 Hz using point stimulation. The composition of the Tyrode's solution was as following (in mM): NaCl 129, KCl 4, NaH2PO4 0.9, NaHCO3 20, CaCl2 1.8, MgSO4 0.5, and D-glucose 5.5.
Action potential recordings: Transmembrane potentials were recorded using standard glass microelectrodes filled with 2.7 M KCl (10 to 20 MΩ DC resistance) connected to a high input-impedance amplification system (World Precision Instruments, Sarasota, Fla., USA).
Control recordings were obtained after a 30 min equilibration period. Increasing concentrations of ranolazine (1, 5, 10, 50, and 100 μM) were evaluated, with recordings started 20 minutes after the addition of each concentration of the drug. The rate-dependence of ranolazine's actions were evaluated by recording action potentials at basic cycle lengths (BCL) of 300, 500, 800, 1000, 2000, and 5000 msec. In this report only BCLs of 500 and 2000 msec are presented as representative of relatively rapid and slow pacing rates.
Because low extracellular K^+ is known to promote drug-induced APD prolongation and early afterdepolarizations, we determined the effects of ranolazine in the presence of normal (4 mM) and low (3 mM) [K^+]o.
In the final phase, we evaluate the effects of ranolazine on EADs induced by d-sotalol (100 μM), a fairly specific IKr blocker.

[4] = ranolazine 1.0 μM, [K+]0 = 3.0 mM
[5] = ranolazine 1.0 μM, [K+]0 = 4.0 mM
[6] = ranolazine 5.0 μM, [K+]0 = 3.0 mM
[7] = ranolazine 5.0 μM, [K+]0 = 4.0 mM
[8] = ranolazine 10.0 μM, [K+]0 = 3.0 mM
[9] = ranolazine 10.0 μM, [K+]0 = 4.0 mM
[10] = ranolazine 50.0 μM, [K+]0 = 3.0 mM
[11] = ranolazine 50.0 μM, [K+]0 = 4.0 mM
[12] = ranolazine 100.0 μM, [K+]0 = 3.0 mM
[13] = ranolazine 100.0 μM, [K+]0 = 4.0 mM

late INa, sequence (Q865W3 1-2013): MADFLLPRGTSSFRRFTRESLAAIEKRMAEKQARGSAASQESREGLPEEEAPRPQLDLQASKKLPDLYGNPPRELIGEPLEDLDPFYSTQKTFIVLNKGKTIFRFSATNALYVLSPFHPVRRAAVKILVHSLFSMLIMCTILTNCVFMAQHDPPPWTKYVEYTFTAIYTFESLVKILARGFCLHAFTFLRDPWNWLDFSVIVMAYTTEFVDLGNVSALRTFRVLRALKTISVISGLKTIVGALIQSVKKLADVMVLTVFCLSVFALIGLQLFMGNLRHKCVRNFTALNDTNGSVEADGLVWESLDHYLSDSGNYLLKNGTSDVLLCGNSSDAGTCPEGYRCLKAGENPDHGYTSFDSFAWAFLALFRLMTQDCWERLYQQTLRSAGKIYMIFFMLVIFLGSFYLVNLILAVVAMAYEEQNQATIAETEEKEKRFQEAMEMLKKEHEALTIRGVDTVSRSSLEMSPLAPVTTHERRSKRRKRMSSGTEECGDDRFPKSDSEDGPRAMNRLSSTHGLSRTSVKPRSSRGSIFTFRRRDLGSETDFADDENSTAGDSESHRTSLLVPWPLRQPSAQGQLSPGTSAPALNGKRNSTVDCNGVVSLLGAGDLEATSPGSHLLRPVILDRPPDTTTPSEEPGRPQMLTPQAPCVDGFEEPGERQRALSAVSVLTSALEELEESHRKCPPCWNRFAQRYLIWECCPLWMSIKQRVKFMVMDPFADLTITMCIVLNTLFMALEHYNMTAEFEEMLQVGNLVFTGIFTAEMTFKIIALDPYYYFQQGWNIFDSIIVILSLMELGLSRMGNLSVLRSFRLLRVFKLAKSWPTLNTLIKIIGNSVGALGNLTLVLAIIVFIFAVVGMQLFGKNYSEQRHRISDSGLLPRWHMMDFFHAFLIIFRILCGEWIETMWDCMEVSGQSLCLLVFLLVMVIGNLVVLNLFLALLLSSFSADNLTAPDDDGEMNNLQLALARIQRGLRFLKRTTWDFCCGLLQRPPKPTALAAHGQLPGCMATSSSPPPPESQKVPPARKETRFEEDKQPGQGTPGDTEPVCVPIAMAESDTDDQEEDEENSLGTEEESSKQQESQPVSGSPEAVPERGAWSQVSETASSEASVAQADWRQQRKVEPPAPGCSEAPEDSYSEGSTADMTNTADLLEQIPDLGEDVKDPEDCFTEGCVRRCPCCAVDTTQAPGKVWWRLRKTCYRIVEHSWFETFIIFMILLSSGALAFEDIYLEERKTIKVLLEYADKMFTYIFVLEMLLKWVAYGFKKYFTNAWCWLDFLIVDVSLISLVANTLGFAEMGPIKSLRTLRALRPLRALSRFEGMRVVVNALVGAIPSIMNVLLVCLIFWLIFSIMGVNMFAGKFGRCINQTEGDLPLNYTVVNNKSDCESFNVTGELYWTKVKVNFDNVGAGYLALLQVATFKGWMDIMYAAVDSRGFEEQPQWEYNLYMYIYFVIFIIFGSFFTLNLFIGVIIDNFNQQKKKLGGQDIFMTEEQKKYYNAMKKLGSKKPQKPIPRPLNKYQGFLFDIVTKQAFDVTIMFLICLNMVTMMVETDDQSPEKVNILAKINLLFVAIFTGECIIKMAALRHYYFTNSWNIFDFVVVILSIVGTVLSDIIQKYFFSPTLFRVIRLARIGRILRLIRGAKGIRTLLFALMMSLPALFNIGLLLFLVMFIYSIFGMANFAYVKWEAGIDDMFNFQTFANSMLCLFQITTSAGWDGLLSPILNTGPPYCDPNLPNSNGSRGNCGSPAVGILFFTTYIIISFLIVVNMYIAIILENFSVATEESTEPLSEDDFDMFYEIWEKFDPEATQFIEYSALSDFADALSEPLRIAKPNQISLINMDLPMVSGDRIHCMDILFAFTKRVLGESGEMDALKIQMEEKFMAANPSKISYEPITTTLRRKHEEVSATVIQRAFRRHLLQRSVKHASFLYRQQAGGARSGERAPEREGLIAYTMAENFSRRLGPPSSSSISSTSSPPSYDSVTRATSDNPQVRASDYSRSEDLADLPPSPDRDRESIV

SMILES: COc1ccccc1OCC(O)CN1CCN(CC(=O)Nc2c(C)cccc2C)CC1 (racemic) [ranolazine, N-(2,6-dimethylphenyl)-4-[2-hydroxy-3-(2-methoxyphenoxy)propyl]-1-piperazineacetamide]
- IC50 [1]: 21 µM
- IC50 [2]: 91 µM
- Lowest concentration suppressing EADs induced by d-sotalol [3]: 5 micromolar/L
- Amplitude (phase 0) [3, 4]: 132 ± 6
- Overshoot [3, 4]: 40 ± 5
- RMP [3, 4]: −92 ± 1
- Amplitude (phase 0) [3, 5]: 120 ± 9
- Overshoot [3, 5]: 32 ± 7
- RMP [3, 5]: −90 ± 2
- Amplitude (phase 0) [3, 6]: 130 ± 5
- Overshoot [3, 6]: 38 ± 4
- RMP [3, 6]: −92 ± 1
- Amplitude (phase 0) [3, 7]: 124 ± 3
- Overshoot [3, 7]: 34 ± 7
- RMP [3, 7]: −90 ± 2
- Purkinje fibers in which d-sotalol-induced EADs were abolished ([3]; ranolazine 5 μM, d-sotalol 100 μM): 4 out of 4
- Amplitude (phase 0) [3, 8]: 128 ± 4
- Overshoot [3, 8]: 37 ± 4
- RMP [3, 8]: −92 ± 1
- Amplitude (phase 0) [3, 9]: 122 ± 7
- Overshoot [3, 9]: 32 ± 6
- RMP [3, 9]: −90 ± 3
- Amplitude (phase 0) [3, 10]: 121 ± 7
- Overshoot [3, 10]: 29 ± 6
- RMP [3, 10]: −92 ± 1
- Amplitude (phase 0) [3, 11]: 117 ± 7
- Overshoot [3, 11]: 28 ± 7
- RMP [3, 11]: −89 ± 3
- Amplitude (phase 0) [3, 12]: 114 ± 7
- Overshoot [3, 12]: 24 ± 7
- RMP [3, 12]: −90 ± 2
- Amplitude (phase 0) [3, 13]: 106 ± 12
- Overshoot [3, 13]: 19 ± 11
- RMP [3, 13]: −87 ± 3
- Effect on APD ([3]; ranolazine 1-10 μM, [K+]o 4 mM): either no effect or a relatively small abbreviation
- Effect on Vmax ([3]; ranolazine 50 and 100 μM): significant reduction
- Effect on APD90 ([3]; ranolazine 50 and 100 μM, [K+]o 4 mM): markedly abbreviated at slow, but not at rapid pacing rates
- Effect on APD50 ([3]; ranolazine 50 and 100 μM, rapid and slow rates, [K+]o 4 mM): significantly abbreviated
